Reference: patent US20070275382A1, “Biomarkers for the Efficacy of Somatostatin Analogue Treatment” (priority 2003, published 2007)
*1 amine or outer side, *2 acyl side, *3 side chain or, on linkers, in order; H or OH if unused. Where a SMILES comes first, the peptide text is derived from it. Side-chain parts run from the residue outwards. [ ]: non-standard residue; d: D form. The star is where a group is joined. Ethylenediamine = C(CN[*:2])N[*:1]; Hyp = O=C(O)[CH]1C[CH](O)CN1; Phg = N[CH](C(=O)O)c1ccccc1; CO = O=C([*:1])[*:2]; Bn = c1ccc(C*)cc1

System: Kidney
Assay: Microarray gene expression profiling (HG-U95A), kidney
Type: in vivo, cynomolgus monkeys
Experimental: Origin of tissue and processing. Male and female cynomolgus monkeys received subcutaneously pasireotide (100 μg/animal/day) or the vehicle for 14 days. On day 15, all animals were sacrificed and tissues for RNA extraction were immediately snap-frozen and kept at −80° C. until processing.
RNA expression profiling was conducted by means of the HG-U95A gene expression probe array (Affymetrix; Santa Clara, Calif. USA), containing more than 12,600 probe sets interrogating primarily full-length human genes and also some control probe sets. The experiment was conducted according to the recommendations of the manufacturer. Briefly, total RNA was obtained by acid guanidinium thiocyanate-phenol-chloroform extraction (Trizol®, Invitrogen Life Technologies, San Diego, Calif. USA) from each frozen tissue section. The total RNA was then purified on an affinity resin (Rneasy®, Qiagen) and quantified. Double stranded cDNA was synthesized with a starting amount of approximately 5 μg full-length total RNA using the Superscript® Choice System (Invitrogen Life Technologies, Carlsbad, Calif. USA) in the presence of a T7-(dT)24 DNA oligonucleotide primer. Following synthesis, the cDNA was purified by phenol/chloroform/isoamyl alcohol extraction and ethanol precipitation. The purified cDNA was then transcribed in vitro using the BioArray® High Yield RNA Transcript Labeling Kit (ENZO, Farmingdale, N.Y. USA) in the presence of biotinylated ribonucleotides form biotin labelled cRNA. The labelled cRNA was then purified on an affinity resin (Rneasy®, Qiagen), quantified and fragmented. An amount of approximately 10 μg labelled cRNA was hybridized for 16 hours at 45° C. to an expression probe array. The array was then washed and stained twice with streptavidin-phycoerythrin (Molecular Probes,) using the GeneChip® Fluidics Workstation 400 (Affymetrix, Santa Clara, Calif. USA). The array was then scanned twice using a confocal laser scanner (GeneArray® Scanner, Agilent, Palo Alto, Calif. USA) resulting in one scanned image. This resulting “.dat-file” was processed using the MAS4 program (Affymetrix) into a “.cel-file”. The “.cel file” was captured and loaded into the Affymetrix GeneChip® Laboratory Information Management System (LIMS). The LIMS database is connected to a UNIX Sun Solaris server through a network filing system that allows for the average intensities for all probes cells (CEL file) to be downloaded into an Oracle database (NPGN). Raw data was converted to expression levels using a “target intensity” of 150. The data were evaluated for quality control and loaded in the GeneSpring® software 4.2.4 (Silicon Genetics, Calif. USA) for analysis.
On the human Affymetrix HGU95Av2 chip, probe sets for individual genes contain 20 oligonucleotide pairs, each composed of a “perfect match” 25-mer and a “mismatch” 25-mer differing from the “perfect” match oligonucleotide at a single base. After probe labelling, hybridization, and laser scanning, the expression level was estimated by averaging the differences in signal intensity measured by oligonucleotide pairs of a given probe (AvgDiff value). The fold changes and directions were calculated for selected genes, from the differences of the AvgDiff values between controls and treated.
To identify genes that were impacted by pasireotide, the dataset was initially filtered to exclude in a first wave of analysis, genes whose values were systematically in the lower expression ranges where the experimental noise is high (at least 80 in a number of experiments corresponding to the smallest number of replicas of any experimental point). In a second round of selection a threshold p-value of 0.05 (based on a t-test) identified differences between treated and control based on a two component error model (Global Error Model) and, whenever possible, with a stepdown correction for multi-hypothesis testing (Benjamini and Hochberg false discovery rate). […]

[1] = ↑ increase, treated vs controls
[2] = ↓ decrease, treated vs controls

## NCCCCC1NC(=O)C(Cc2c[nH]c3ccccc23)NC(=O)C(c2ccccc2)NC(=O)C2CC(OC(=O)NCCN)CN2C(=O)C(Cc2ccccc2)NC(=O)C(Cc2ccc(OCc3ccccc3)cc2)NC1=O (stereo not drawn) [Pasireotide, cyclo[4-(NH2—C2H4—NH—CO—O)Pro-Phg-DTrp-Lys-Tyr(4-Bzl)-Phe]] (cyclo(F[Hyp]([CO-Ethylenediamine])[Phg]WKY(Bn)); configuration not given here)
0.1 mg/animal/14day
  IGF-1 expression level, AvgDiff (range): 25 (20 to 39)
  IGFBP2 expression level, AvgDiff (range): 563 (457 to 655)
  IR expression level, AvgDiff (range): 196 (163 to 265)
  SSTR2 expression level, AvgDiff (range): 126 (93 to 158)
  SSTR3 expression level, AvgDiff (range): 82 (33 to 120)
[1]
  Adrenomedullin RNA expression fold change: ↑ x1.5
  Arginine vasopressin (neurophysin II, antidiuretic hormone, diabetes insipidus, neurohypophyseal) RNA expression fold change: ↑ x2
  CDC37 (cell division cycle 37, S. cerevisiae, homolog) RNA expression fold change: homolog) ↑ x1.5
  CSF-1 receptor, formerly McDonough feline sarcoma viral (v-fms) oncogene homolog RNA expression fold change: homolog ↑ x2.5
  Ca++ channel, voltage-dependent, α 1H subunit RNA expression fold change: subunit ↑ x2
  Calcium/calmodulin-dependent protein kinase kinase 2, β RNA expression fold change: ↑ x1.5
  Cdk 5, regulatory subunit 2 (p39) RNA expression fold change: ↑ x1.5
  Cdki 1A (p21, Cip 1) RNA expression fold change: Cip 1) ↑ x5
  Corticotropin releasing hormone receptor type 2 beta isoform RNA expression fold change: ↑ x1.5
  Dopamine receptor D2 RNA expression fold change: ↑ x4.5
  Fas/Apo-1/CD95 RNA expression fold change: ↑ x1.5
  GABA (A) receptor, γ2 precursor RNA expression fold change: precursor ↑ x2
  GFR-bound protein 7 RNA expression fold change: protein 7 ↑ x2
  GFR-bound protein 14 RNA expression fold change: protein 14 ↑ x2
  Growth arrest-specific 6 RNA expression fold change: specific 6 ↑ x1.5
  IGFBP2 RNA expression fold change: IGFBP2 ↑ x1.5
  IL-7 R precursor RNA expression fold change: ↑ x2
  IRF5 RNA expression fold change: IRF5 ↑ x2
  K+ voltage-gated channel, Shaw-related subfamily, member 3 RNA expression fold change: member 3 ↑ x2.5
  LIF (cholinergic differentiation factor) RNA expression fold change: factor) ↑ x2
  Natriuretic peptide receptor A/guanylate cyclase A (atrionatriuretic peptide receptor A) RNA expression fold change: A) ↑ x2
  Opioid receptor, δ1 RNA expression fold change: δ1 ↑ x2.5
  PDGFR, α polypeptide RNA expression fold change: polypeptide ↑ x1.5
  Putative chemokine receptor; GTP-binding protein RNA expression fold change: ↑ x2
  SSTR2 RNA expression fold change: SSTR 2↑ x2
  SSTR 3 RNA expression fold change: SSTR 3↑ x3
  Solute carrier family 9 (Na+/H+ exchanger) isoform 3 regulatory factor 1 RNA expression fold change: ↑ x2
  TGF, β1 RNA expression fold change: TGF, β 1 ↑ x1.5
  THR binding protein RNA expression fold change: protein ↑x1.5
  THR, α (avian erythroblastic leukaemia viral (v-erb-a) oncogene homolog) RNA expression fold change: homolog) ↑x1.5
  TNFR superfamily, member 12 RNA expression fold change: ↑ x2
  VWF precursor RNA expression fold change: precursor ↑ x2
  δ sleep inducing peptide, immunoreactor RNA expression fold change: x2.5
[2]
  Acetylserotonin O-methyl transferase-like RNA expression fold change: ↓ x3
  Angiotensin receptor 1B RNA expression fold change: 1B ↓ x1.5
  Calmodulin 3 (phosphorrylase kinase, δ) RNA expression fold change: ↓ x1.5
  Cdk (CDC2-like) RNA expression fold change: ↓ x2
  Death effecter domain-containing RNA expression fold change: ↓ x3.5
  Glucocorticoid receptor DNA binding factor 1 RNA expression fold change: ↓ x4.5
  Glutamate receptor, metabotropic 2 precursor RNA expression fold change: precursor ↓ x3
  IGF-1 RNA expression fold change: IGF-1 ↓ x2.5
  IGF-2 RNA expression fold change: IGF-2 ↓ x2
  Insulin receptor RNA expression fold change: ↓ x3
  Na+ channel, nonvoltage-gated 1, β (Liddle syndrome) RNA expression fold change: syndrome) ↓ x2
  PG-endoperoxide synthase 1 (prostaglandin G/H synthase and cyclooxygenase) RNA expression fold change: ↓ x3.5
  PI-3-kinase, catalytic, α polypeptide RNA expression fold change: polypeptide ↓ x3
  PP 3 (formerly 2B), catalytic subunit, β isoform (calcineurin A β) RNA expression fold change: A β) ↓ x2
  Solute carrier family 6 (neurotransmitter transporter, creatin), member 8 RNA expression fold change: ↓ x3
  THR-associated protein, 240kδ subunit RNA expression fold change: subunit ↓ x1.5
  TNF, α-induced protein 3 RNA expression fold change: ↓ x1.5
  Vasopressin-activated calcium-mobilizing receptor-1 RNA expression fold change: receptor-1 ↓ x2
